Read-outs that look alike come from different tables or passages of the source.
What was measured:
[1] = tested on: P. berghei strain GFP-ANKA; assay: In vivo antimalarial efficacy study in infected NMRI mice; details: female NMRI mice infected with P. berghei GFP-ANKA, single oral dose of 100 mg/kg 24 h after infection, parasitemia 48 h after drug treatment (day 3); for inhibition in vivo at 100 mg/kg: Plasmodium berghei, read-out: Activity (inhibition of parasitemia) expressed as a percent relative to the control group
Procedure: In Vivo Antimalarial Efficacy Studies
In vivo antimalarial activity is assessed for groups of three female NMRI mice (20-22 g) intravenously infected on day 0 with P. berghei strain GFP-ANKA (0.2 mL heparinized saline suspension containing 2×10^7 parasitized erythrocytes). In control mice, parasitemia typically rises to approximately 40% by day 3 after infection. Compounds are formulated in Tween 80/ethanol (7%/3%) usually at concentrations of 10 mg/mL. Compounds are administered in a volume of 10 mL/kg orally as single doses (1×100 mg/kg, 24 h after infection). 48 h after drug treatment (day 3 post-infection), 1 μl tail blood is taken, resuspended in 1 mL PBS buffer and parasitemia determined with a FACScan (Becton Dickinson) by counting 100′000 red blood cells. Activity is calculated as the difference between the mean value of the control group and treated groups expressed as a percent relative to the control group.

[2] = tested on: erythrocytic stages of P. falciparum NF54; assay: Plasmodium falciparum in vitro assay, [3H] hypoxanthine incorporation; assay type: cell-based; details: P. falciparum NF54 in human red blood cells, 48 h + 24 h incubation
In short: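 Cultures in human red blood cells (2.5% hematocrit, 0.3% parasitemia) were exposed to serially diluted compounds for 48 h at 37° C. under 4% CO2, 3% O2, 93% N2. [3H] hypoxanthine (0.5 μCi) was added for a further 24 h, incorporation counted by scintillation, and IC50 derived from sigmoidal inhibition curves.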

[3] = Plasmodium falciparum, Erythrocyte, 72 h, screening medium with Albumax (5 g/L), read-out: IC50 on NF54 (with Albumax)
[4] = Plasmodium falciparum, Erythrocyte, 72 h, screening medium with human serum (50% final concentration), read-out: IC50 on NF54 (with 50% Serum)

## CC(=O)Nc1ccc(C=CC(=O)N(Cc2ccc(N3CCN(C(C)=O)CC3)cc2)[C@@H](Cc2ccccc2)C(=O)N2CCN(Cc3ccccc3)CC2)cc1 [Example 7, (S)-3-(4-Acetylamino-phenyl)-N-[4-(4-acetyl-piperazin-1-yl)benzyl]-N-[1-benzyl-2-(4-benzyl-piperazin-1-yl)-2-oxo-ethyl]-acrylamide]
[1]
  inhibition in vivo at 100 mg/kg: 44.7%
[2]; [3]
  IC50: 3.1 nM
[2]; [4]
  IC50: 40 nM

## CC(=O)N1CCN(c2ccc(CN(C(=O)C=Cc3ccc(C(C)C)cc3)[C@@H](Cc3ccccc3)C(=O)N3CCN(Cc4ccc(C#N)cc4)CC3)cc2)CC1 [Example 32, (S)-N-[4-(4-Acetyl-piperazin-1-yl)-benzyl]-N-{1-benzyl-2-[4-(4-cyano-benzyl)-piperazin-1-yl]-2-oxo-ethyl}-3-(4-isopropyl-phenyl)-acrylamide]
[1]
  inhibition in vivo at 100 mg/kg: 98.5%
[2]; [3]
  IC50: 0.5 nM
[2]; [4]
  IC50: 4.4 nM

## CC(=O)N1CCN(c2ccc(CN(C(=O)C=Cc3ccc(C(C)(C)C)cc3)[C@@H](Cc3ccccc3)C(=O)N3CCN(Cc4ccc(S(C)(=O)=O)cc4)CC3)cc2)CC1 [Example 45, (S)-N-[4-(4-Acetyl-piperazin-1-yl)-benzyl]-N-{1-benzyl-2-[4-(4-(methylsulfonyl)-benzyl)-piperazin-1-yl]-2-oxo-ethyl}-3-(4-tert-butyl-phenyl)-acrylamide]
[1]
  inhibition in vivo at 100 mg/kg: 99.4%
[2]; [3]
  IC50: 0.2 nM
[2]; [4]
  IC50: 1.8 nM

## CC(=O)N1CCN(c2ccc(CN(C(=O)C=Cc3ccc(OC(F)F)cc3)[C@@H](Cc3ccccc3)C(=O)N3CCN(Cc4ccc(Cl)cc4)CC3)cc2)CC1 [Example 41, (S)-N-[4-(4-Acetyl-piperazin-1-yl)-benzyl]-N-{1-benzyl-2-[4-(4-chloro-benzyl)-piperazin-1-yl]-2-oxo-ethyl}-3-(4-difluoromethoxy-phenyl)-acrylamide]
[1]
  inhibition in vivo at 100 mg/kg: 71%
[2]; [3]
  IC50: 2.9 nM
[2]; [4]
  IC50: 12.5 nM

## CC(=O)N1CCN(c2ccc(CN(C(=O)C=Cc3ccc(C(C)C)cc3)[C@@H](Cc3ccccc3)C(=O)N3CCN(Cc4ccccc4)CC3)cc2)CC1 [Example 10, (S)-N-[4-(4-Acetyl-piperazin-1-yl)-benzyl]-N-[1-benzyl-2-(4-benzyl-piperazin-1-yl)-2-oxo-ethyl]-3-(4-isopropyl-phenyl)-acrylamide]
[1]
  inhibition in vivo at 100 mg/kg: 96%
[2]; [3]
  IC50: 3 nM
[2]; [4]
  IC50: 8.6 nM

## CCc1ccc(C=CC(=O)N(Cc2ccc(N3CCN(C(C)=O)CC3)cc2)[C@@H](Cc2ccccc2)C(=O)N2CCN(Cc3ccc(N(C)C)cc3)CC2)cc1 [Example 20, (S)-N-[4-(4-Acetyl-piperazin-1-yl)-benzyl]-N-{1-benzyl-2-[4-(4-dimethylamino-benzyl)-piperazin-1-yl]-2-oxo-ethyl}-3-(4-ethyl-phenyl)-acrylamide]
[1]
  inhibition in vivo at 100 mg/kg: 98.5%
[2]; [3]
  IC50: 1.2 nM
[2]; [4]
  IC50: 7.1 nM

## CCCOc1ccc(C=CC(=O)N(Cc2ccc(N3CCN(C(C)=O)CC3)cc2)[C@@H](Cc2ccccc2)C(=O)N2CCN(Cc3ccc(N(C)CCO)cc3)CC2)cc1 [Example 57, (S)-N-[4-(4-Acetyl-piperazin-1-yl)-benzyl]-N-[1-benzyl-2-(4-{4-[(2-hydroxy-ethyl)-methyl-amino]-benzyl}-piperazin-1-yl)-2-oxo-ethyl]-3-(4-propoxy-phenyl)-acrylamide]
[1]
  inhibition in vivo at 100 mg/kg: 98.2%
[2]; [3]
  IC50: 1.7 nM
[2]; [4]
  IC50: 5.1 nM

## CC(=O)N1CCN(c2ccc(CN(C(=O)C=Cc3ccc(C(F)(F)F)cc3)[C@@H](Cc3ccccc3)C(=O)N3CCN(Cc4ccc(C#N)cc4)CC3)cc2)CC1 [Example 24, (S)-N-[4-(4-Acetyl-piperazin-1-yl)-benzyl]-N-{1-benzyl-2-[4-(4-cyano-benzyl)-piperazin-1-yl]-2-oxo-ethyl}-3-(4-trifluoromethyl-phenyl)-acrylamide]
[1]
  inhibition in vivo at 100 mg/kg: 79.2%
[2]; [3]
  IC50: 2.8 nM
[2]; [4]
  IC50: 13.9 nM

## CC(=O)N1CCN(c2ccc(CN(C(=O)C=Cc3ccc(OC(C)C)cc3)[C@@H](Cc3ccccc3)C(=O)N3CCN(Cc4ccc(N(C)CCO)cc4)CC3)cc2)CC1 [Example 58, (S)-N-[4-(4-Acetyl-piperazin-1-yl)-benzyl]-N-[1-benzyl-2-(4-{4-[(2-hydroxy-ethyl)-methyl-amino]-benzyl}-piperazin-1-yl)-2-oxo-ethyl]-3-(4-isopropoxy-phenyl)-acrylamide]
[1]
  inhibition in vivo at 100 mg/kg: 98.2%
[2]; [3]
  IC50: 1.4 nM
[2]; [4]
  IC50: 3.9 nM

## (S)-N-[4-(4-Acetyl-piperazin-1-yl)-benzyl]-N-[1-benzyl-2-(4-{4-[(2-hydroxy-ethyl)-methyl-amino]-benzyl}-piperazin-1-yl)-2-oxo-ethyl]-3-(4-isopropyl-phenyl)-acrylamide [Example 61]
[1]
  Activity (inhibition of parasitemia) expressed as a percent relative to the control group: 98.8%
[2]; screening medium with Albumax (5 g/L), read-out: IC50 on NF54 (with Albumax)
  IC50: 1.2 nM
[2]; screening medium with human serum (50% final concentration), read-out: IC50 on NF54 (with 50% Serum)
  IC50: 6.7 nM

## CC(=O)N1CCN(c2ccc(CN(C(=O)C=Cc3ccc(OC(C)C)cc3)[C@@H](Cc3ccccc3)C(=O)N3CCN(Cc4ccccc4)CC3)cc2)CC1 [Example 9, (S)-N-[4-(4-Acetyl-piperazin-1-yl)-benzyl]-N-[1-benzyl-2-(4-benzyl-piperazin-1-yl)-2-oxo-ethyl]-3-(4-isopropoxy-phenyl)-acrylamide]
[1]
  inhibition in vivo at 100 mg/kg: 99.1%
[2]; [3]
  IC50: 2.4 nM
[2]; [4]
  IC50: 7.3 nM

## CCS(=O)(=O)c1ccc(CN2CCN(C(=O)[C@H](Cc3ccccc3)N(Cc3ccc(N4CCN(C(C)=O)CC4)cc3)C(=O)C=Cc3ccc(C(F)(F)F)cc3)CC2)cc1 [Example 49, (S)-N-(4-(4-acetylpiperazin-1-yl)benzyl)-N-(1-(4-(4-(ethylsulfonyl)benzyl)piperazin-1-yl)-1-oxo-3-phenylpropan-2-yl)-3-(4-(trifluoromethyl)phenyl)acrylamide]
[1]
  inhibition in vivo at 100 mg/kg: 98.6%
[2]; [3]
  IC50: 0.8 nM
[2]; [4]
  IC50: 3.1 nM

## CC(=O)N1CCN(c2ccc(CN(C(=O)C=Cc3ccc(C(C)(C)C)cc3)[C@@H](Cc3ccccc3)C(=O)N3CCN(Cc4ccc(N(C)C)cc4)CC3)cc2)CC1 [Example 22, (S)-N-[4-(4-Acetyl-piperazin-1-yl)-benzyl]-N-{1-benzyl-2-[4-(4-dimethylamino-benzyl)-piperazin-1-yl]-2-oxo-ethyl}-3-(4-tert-butyl-phenyl)-acrylamide]
[1]
  inhibition in vivo at 100 mg/kg: 99.3%
[2]; [3]
  IC50: 1.3 nM
[2]; [4]
  IC50: 10.9 nM

## CC(=O)N1CCN(c2ccc(CN(C(=O)C=Cc3ccc(S(C)(=O)=O)cc3)[C@@H](Cc3ccccc3)C(=O)N3CCN(Cc4ccc(N(C)C)cc4)CC3)cc2)CC1 [Example 16, (S)-N-[4-(4-Acetyl-piperazin-1-yl)-benzyl]-N-{1-benzyl-2-[4-(4-dimethylamino-benzyl)-piperazin-1-yl]-2-oxo-ethyl}-3-(4-methanesulfonyl-phenyl)-acrylamide]
[1]
  inhibition in vivo at 100 mg/kg: 85.9%
[2]; [3]
  IC50: 5.5 nM
[2]; [4]
  IC50: 13.3 nM

## CCc1ccc(C=CC(=O)N(Cc2ccc(N3CCN(C(C)=O)CC3)cc2)[C@@H](Cc2ccccc2)C(=O)N2CCN(Cc3ccccc3)CC2)cc1 [Example 2, (S)-N-[4-(4-Acetyl-piperazin-1-yl)-benzyl]-N-[1-benzyl-2-(4-benzyl-piperazin-1-yl)-2-oxo-ethyl]-3-(4-ethyl-phenyl)-acrylamide]
[1]
  inhibition in vivo at 100 mg/kg: 94.1%
[2]; [3]
  IC50: 2 nM
[2]; [4]
  IC50: 10 nM

## CC(=O)N1CCN(c2ccc(CN(C(=O)C=Cc3ccc(C(C)C)cc3)[C@@H](Cc3ccccc3)C(=O)N3CCN(Cc4ccc(Cl)cc4)CC3)cc2)CC1 [Example 42, (S)-N-[4-(4-Acetyl-piperazin-1-yl)-benzyl]-N-{1-benzyl-2-[4-(4-chloro-benzyl)-piperazin-1-yl]-2-oxo-ethyl}-3-(4-isopropyl-phenyl)-acrylamide]
[1]
  inhibition in vivo at 100 mg/kg: 97.3%
[2]; [3]
  IC50: 1.7 nM
[2]; [4]
  IC50: 13.7 nM

## CC(=O)N1CCN(c2ccc(CN(C(=O)C=Cc3ccc(S(C)(=O)=O)cc3)[C@@H](Cc3ccccc3)C(=O)N3CCN(Cc4ccc(N(C)CCO)cc4)CC3)cc2)CC1 [Example 55, (S)-N-[4-(4-Acetyl-piperazin-1-yl)-benzyl]-N-[1-benzyl-2-(4-{4-[(2-hydroxy-ethyl)-methyl-amino]-benzyl}-piperazin-1-yl)-2-oxo-ethyl]-3-(4-methanesulfonyl-phenyl)-acrylamide]
[1]
  inhibition in vivo at 100 mg/kg: < 40%
[2]; [3]
  IC50: 7.5 nM
[2]; [4]
  IC50: 14.8 nM

## CC(=O)N1CCN(c2ccc(CN(C(=O)C=Cc3ccc(C(F)(F)F)cc3)[C@@H](Cc3ccccc3)C(=O)N3CCN(Cc4ccc(S(C)(=O)=O)cc4)CC3)cc2)CC1 [Example 47, (S)-N-(4-(4-acetylpiperazin-1-yl)benzyl)-N-(1-(4-(4-(methylsulfonyl)benzyl)piperazin-1-yl)-1-oxo-3-phenylpropan-2-yl)-3-(4-(trifluoromethyl)phenyl)acrylamide]
[1]
  inhibition in vivo at 100 mg/kg: 98.4%
[2]; [3]
  IC50: 0.5 nM
[2]; [4]
  IC50: 3.5 nM

Source: patent US8889688B2, “Piperazines as antimalarial agents” (Actelion Pharmaceuticals Ltd., priority 2011, dated 2014)
